{"source": "patent US12630506B2", "about": "“Direct thrombin inhibitors and methods of use thereof” (Baylor College of Medicine, priority 2020, dated 2026)", "target": "Thrombin (Homo sapiens, UniProt P00734)", "assay": "Thrombin inhibition in vitro (Kiapp)", "type": "biochemical", "description": "The inhibitory potency of Compound 1 on thrombin was tested in vitro.", "data": [{"smiles": "CNC(=O)[C@@H]1CN(C(=O)[C@H](Cc2ccccc2CNC(=N)N)NC(=O)N(C)[C@H]2CCOc3ccccc32)C[C@H]1c1ccc(OC)cc1", "note": "[Compound 1]", "values": [{"measurement": "Ki", "setting": "in vitro, FIG. 1, read-out: inhibition constant (thrombin)", "result": 1, "unit": "nM"}, {"measurement": "potency relative to argatroban (thrombin inhibition)", "setting": "ratio of inhibition constants vs argatroban", "result": "about 10 fold"}]}]}
